Reference: patent publication EP0816375A1, “GLYCOCONJUGATES OF OPIATED SUBSTANCES” (ROLABO SL, priority 1995, dated 1997)

Tests used:
Male Sprague-Dawley rats = assay: antinociceptive tests: tail flick (tail immersion) test and paw pressure test; type: in vivo; conditions: for degree of analgesia: intraperitoneally administered, codeine 5 mg/Kg compared with compound of example 26
Text: The compounds of the invention may be compared with the unmodified parent opiates in standard antinociceptive tests, i.e. in terms of potency and duration of action. For example, phamacological tests may be effected to examine the effects of the compounds of the invention on suppressing pain associated to nocius stimuli induced in laboratory animals. Thus, these compounds can be tested by measuring the time treated animals are insensitive to a given painful stimuli.
In spite of the different classes among the compounds of the invention which can be appreciated in accordance to their chemical structure, all are pain-related substances and therefore can be examined on the tail immersion and paw pressure tests as follows.
Male Sprague-Dawley rats weighing 200 g are used. They are housed singly in a room with controlled temperature 21 °C on a 12h light-dark cycle and given free access to food and water.
The tail flick test, is conducted as described by D'Amour F.E. and Smith D.L. in A method for determining loss of pain sensations, J.Pharmacol. Exp. Ther. 72,74, 1941.
Mechanical nociceptive thresholds are determined by the paw pressure test on the left hind paw as described in the literature (Randall L.O. and Selito J.J. A method for measurement of analgesic activity on inflamed tissue, Arch. Int. Pharmacodyn. Ther. 1957, 11, 409-419.). Pain thresholds are measured with an analgesymeter. The apparatus is set up to apply a force of 0-1000 g increasing from zero at a rate of 64 g/s. The nociceptive threshold is taken as the point at which the rat vocalize or struggle vigorously.

[1] = blood of patients taking morphine; cited from earlier work
[2] = cited from earlier work; for analgesic activity: compared with the parent drug morphine

SMILES	degree of analgesia (Male Sprague-Dawley rats)	concentration in blood relative to morphine [1]	analgesic activity [2]	also measured
CCCCCCCCNC(=O)[C@H]1O[C@@H](Oc2ccc3c4c2O[C@H]2[C@@H](O)C=C[C@H]5[C@@H](C3)N(C)CC[C@@]452)[C@H](O)[C@@H](O)[C@@H]1O [Example 1, 3-Morphinyl n-octyl-(β-D-glucopyranosyl)-uronamide acetate]				analgesia (Male Sprague-Dawley rats; intraperitoneal administration, dosis of 0.1 mg/Kg, maximal antinociceptive response): 100%
COc1ccc2c3c1O[C@H]1[C@@H](O[C@@H]4O[C@H](CO)[C@@H](O)[C@H](O)[C@H]4O)C=C[C@H]4[C@@H](C2)N(C)CC[C@@]341 [Example 26, 6-Codeinyl-β-D-glucopyranoside acetate]	the same degree of analgesia			
CN1CC[C@]23c4c5ccc(O[C@@H]6O[C@H](C(=O)O)[C@@H](O)[C@H](O)[C@H]6O)c4O[C@H]2[C@@H](O)C=C[C@H]3[C@H]1C5 [Example M3G, Morphine 3-glucuronide]		approximately 20 fold	not analgesic	analgesia (Male Sprague-Dawley rats; intraperitoneal administration, dosis of 1 mg/Kg, same effect as morphine 5 mg/Kg): 65-75%
CN1CC[C@]23c4c5ccc(O)c4O[C@H]2[C@@H](O[C@@H]2O[C@H](C(=O)O)[C@@H](O)[C@H](O)[C@H]2O)C=C[C@H]3[C@H]1C5 [Example M6G, Morphine 6-glucuronide]		two fold higher than morphine	several times more active than the parent drug	analgesic activity relative to morphine ([2]; injected intrathecally): much more active than morphine
COc1ccc2c3c1O[C@H]1[C@@H](O)C=C[C@H]4[C@@H](C2)N(C)CC[C@@]341 [codeine]	the same degree of analgesia as compound of example 26			
CN1CC[C@]23c4c5ccc(O)c4O[C@H]2[C@@H](O)C=C[C@H]3[C@H]1C5 [morphine]				analgesia (Male Sprague-Dawley rats; rat, in vivo, ip, 5 mg/kg): 65-75%
